Test results as given in paper PMC9295122, “Sialic Acid Derivatives Inhibit SiaT Transporters and Delay Bacterial Growth” (ACS Chemical Biology, 2022).
Where two headings read alike, the source gives them in different places.

Tests used:
[1] = molecular target: T1, PmSiaT (Proteus mirabilis, UniProt B4EZY7); assay: nanoDSF thermal shift assay, PmSiaT; type: binding; conditions: for Average 1 / Average 2 / Average 3 / Replicate 1 / Replicate 2 / Replicate 3: PmSiaT Tm; for Average 1: average of experiment 1; for Average 2: average of experiment 2; for Average 3: average of experiment 3; for Replicate 1: experiment 1, second capillary; for Replicate 1 / Replicate 2 / Replicate 3 / Tm 1 / Tm2 / Tm 3 / Tm average overall / ΔTm at 1250 µM: 1.25 mM; for Replicate 2: experiment 2, second capillary; for Replicate 3: experiment 3, second capillary; for Tm 1: experiment 1, first capillary; for Tm2: experiment 2, first capillary; for Tm 3: experiment 3, first capillary; for Tm average overall / ΔTm at 1250 µM: three experiments; for ΔTm at 1250 µM: vs Neu5Ac, read-out: ΔTm average overall
T1 construct: made in house
T1 sequence (B4EZY7 1-496): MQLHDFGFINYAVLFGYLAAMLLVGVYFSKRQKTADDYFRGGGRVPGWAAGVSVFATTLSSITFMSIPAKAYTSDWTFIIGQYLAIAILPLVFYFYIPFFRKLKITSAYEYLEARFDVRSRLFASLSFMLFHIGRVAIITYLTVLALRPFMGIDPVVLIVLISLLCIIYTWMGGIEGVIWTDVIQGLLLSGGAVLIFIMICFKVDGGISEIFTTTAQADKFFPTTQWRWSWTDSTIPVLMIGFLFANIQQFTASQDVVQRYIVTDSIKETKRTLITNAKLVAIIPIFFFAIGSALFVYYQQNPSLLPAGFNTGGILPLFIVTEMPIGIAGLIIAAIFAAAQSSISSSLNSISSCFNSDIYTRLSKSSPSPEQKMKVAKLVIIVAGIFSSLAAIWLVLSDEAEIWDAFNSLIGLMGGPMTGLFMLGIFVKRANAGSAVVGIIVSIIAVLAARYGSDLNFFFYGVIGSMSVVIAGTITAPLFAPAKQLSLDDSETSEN
Experimental: (§1) Nano-differential scanning fluorimetry (nanoDSF) is a high-throughput method that relies on the thermal stabilization of the folded protein state by a bound ligand.[33]
(§2) The melting points of protein–inhibitor complexes were measured on a Prometheus NT.48 instrument from NanoTemper Technologies. Solutions containing the protein at 2 μM in phosphate buffered saline with 0.0174% (w/v) dodecylmaltoside (DDM) and the ligand at 1.25 mM were loaded onto standard capillaries by NanoTemper. The temperature was increased from 25 to 95 °C at a ramp rate of 1 °C/min. The fluorescence was recorded at 330 and 350 nm and as a ratio of the two wavelengths.
(§3) The intensity ratio and its first derivative were calculated using manufacturer’s software (PR.ThermControl, version 2.1.2).
(§4) The melting temperatures have been measured in 3 separate experiments. In each experiment, two capillaries were included per compound, having therefore 2 technical replicates per experiment. In the table all data is presented. Tm1 and Replicate 1 represent the two replicates of the first experiment. Average 1 is the average between Tm 1 and Replicate 1. ΔTm 1 is the thermal shift when compared to the Tm of Neu5Ac. This is calculated from Average 1. The ΔTm presented in the article are the ΔTm average overall, which represent the overall average of the averages from the three experiments. The standard deviation (SD) is calculated from the […]

[2] = molecular target: SaSiaT (Staphylococcus aureus, UniProt A0A0H2XJ46); assay: nanoDSF thermal shift assay, SaSiaT; type: binding; conditions: for Average 1 / Average 2 / Average 3 / Replicate 1 / Replicate 2 / Replicate 3: SaSiaT Tm; for Average 1: average of experiment 1; for Average 2: average of experiment 2; for Average 3: average of experiment 3; for Replicate 1: experiment 1, second capillary; for Replicate 1 / Replicate 2 / Replicate 3 / Tm 1 / Tm2 / Tm 3 / Overall average (Tm): 1.25 mM; for Replicate 2: experiment 2, second capillary; for Replicate 3: experiment 3, second capillary; for Tm 1: experiment 1, first capillary; for Tm2: experiment 2, first capillary; for Tm 3: experiment 3, first capillary; for Overall average (Tm): three experiments
Experimental: as §1, §2, §3, §4

[3] = PmSiaT, experiment 1, vs Neu5Ac, read-out: ΔTm 1
[4] = PmSiaT, experiment 2, vs Neu5Ac, read-out: ΔTm 2
[5] = PmSiaT, experiment 3, vs Neu5Ac, read-out: ΔTm 3

SaSiaT, sequence (A0A0H2XJ46 entry or part of it): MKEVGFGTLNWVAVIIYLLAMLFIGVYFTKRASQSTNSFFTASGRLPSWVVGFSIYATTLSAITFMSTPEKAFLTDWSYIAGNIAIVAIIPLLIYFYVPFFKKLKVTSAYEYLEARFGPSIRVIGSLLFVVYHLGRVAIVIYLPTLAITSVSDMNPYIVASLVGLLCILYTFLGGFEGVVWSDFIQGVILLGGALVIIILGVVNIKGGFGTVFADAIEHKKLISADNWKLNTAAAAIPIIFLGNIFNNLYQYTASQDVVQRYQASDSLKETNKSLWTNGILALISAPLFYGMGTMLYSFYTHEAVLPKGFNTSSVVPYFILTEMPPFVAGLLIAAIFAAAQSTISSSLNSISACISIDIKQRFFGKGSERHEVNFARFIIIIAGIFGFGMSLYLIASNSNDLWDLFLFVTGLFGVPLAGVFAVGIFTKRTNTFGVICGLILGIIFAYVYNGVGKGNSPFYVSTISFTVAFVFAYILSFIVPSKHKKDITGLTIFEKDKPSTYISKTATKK

| Structure (SMILES) | Average 1 [1] | Average 2 [1] | Average 3 [1] | Replicate 1 [1] | Replicate 2 [1] | Replicate 3 [1] | Tm 1 ([1]; PmSiaT) | Tm2 ([1]; PmSiaT) | Tm 3 ([1]; PmSiaT) | Tm average overall ([1]; PmSiaT) | Average 1 [2] | Average 2 [2] | Average 3 [2] | Replicate 1 [2] | Replicate 2 [2] | Replicate 3 [2] | Tm 1 ([2]; SaSiaT) | Tm2 ([2]; SaSiaT) | Tm 3 ([2]; SaSiaT) | Overall average (Tm) ([2]; SaSiaT) | also measured |
| --- | --- | --- | --- | --- | --- | --- | --- | --- | --- | --- | --- | --- | --- | --- | --- | --- | --- | --- | --- | --- | --- |
| CCSCC(O)C(O)C1OC(O)(C(=O)O)CC(O)C1NC(C)=O (centres unmarked) [Compound 8b] | 45.9 °C | 45.9 °C | 46.1 °C | 45.9 °C | 46.0 °C | 46.1 °C | 45.8 °C | 45.9 °C | 46.2 °C | 46.0 °C | 49.9 °C | 48.6 °C | 49.8 °C | 49.9 °C | 48.7 °C | 49.6 °C | 49.9 °C | 48.5 °C | 50.0 °C | 49.4 °C | ΔTm [1, 3]: -3.1 °C; ΔTm [1, 4]: -3.3 °C; ΔTm [1, 5]: -3.2 °C; ΔTm at 1250 µM ([1]; PmSiaT): -3.2 °C |
| CC(=O)NC1C(O)CC(O)(C(=O)O)OC1C(O)C(O)CCl (centres unmarked) [Compound 8c] | 47.7 °C | 47.9 °C | 48.0 °C | 47.8 °C | 47.9 °C | 48.1 °C | 47.6 °C | 47.9 °C | 47.9 °C | 47.9 °C | 48.9 °C | 49.6 °C | 49.7 °C | 48.9 °C | 49.6 °C | 49.6 °C | 48.9 °C | 49.5 °C | 49.8 °C | 49.4 °C | ΔTm [1, 3]: -1.3 °C; ΔTm [1, 4]: -1.3 °C; ΔTm [1, 5]: -1.3 °C; ΔTm at 1250 µM ([1]; PmSiaT): -1.3 °C |
| CC(=O)NC1C(O)CC(O)(C(=O)O)OC1C(O)C(O)CBr (centres unmarked) [Compound 8d] | 47.3 °C | 47.2 °C | 47.2 °C | 47.4 °C | 47.1 °C | 47.0 °C | 47.2 °C | 47.3 °C | 47.4 °C | 47.2 °C | 49.9 °C | 49.9 °C | 51.8 °C | 49.8 °C | 49.9 °C | 52.8 °C | 49.9 °C | 49.9 °C | 50.8 °C | 50.5 °C | ΔTm [1, 3]: -1.7 °C; ΔTm [1, 4]: -2 °C; ΔTm [1, 5]: -2.1 °C; ΔTm at 1250 µM ([1]; PmSiaT): -1.9 °C |
| CC(=O)NC1C(O)CC(O)(C(=O)O)OC1C(O)C(O)CI (centres unmarked) [Compound 8e] | 46.9 °C | 47.2 °C | 47.3 °C | 46.7 °C | 47.2 °C | 47.2 °C | 47.2 °C | 47.3 °C | 47.3 °C | 47.1 °C | 49.3 °C | 49.0 °C | 49.5 °C | 49.3 °C | 48.9 °C | 49.1 °C | 49.2 °C | 49.0 °C | 49.9 °C | 49.3 °C | ΔTm [1, 3]: -2.1 °C; ΔTm [1, 4]: -2 °C; ΔTm [1, 5]: -2 °C; ΔTm at 1250 µM ([1]; PmSiaT): -2 °C |
| CC(=O)NC1C(O)CC(O)(C(=O)O)OC1C(O)C(C)O (centres unmarked) [Compound 8f] | 46.0 °C | 45.9 °C | 45.9 °C | 46.0 °C | 45.9 °C | 45.9 °C | 46.0 °C | 45.8 °C | 45.9 °C | 45.9 °C | 43.1 °C | 43.0 °C | 42.9 °C | 42.9 °C | 43.1 °C | 43.0 °C | 43.2 °C | 43.0 °C | 42.8 °C | 43.0 °C | binding / thermal stabilization in words ([1]; PmSiaT, nanoDSF screen): complete loss of affinity; binding / thermal stabilization in words ([2]; SaSiaT, nanoDSF screen): complete loss of affinity |
| CC(=O)NC1C(O)CC(O)(C(=O)O)OC1C(O)C(O)CN=[N+]=[N-] (centres unmarked) [Compound 8g] | 46.0 °C | 46.1 °C | 46.0 °C | 45.9 °C | 46.2 °C | 46.1 °C | 46.0 °C | 46.0 °C | 45.9 °C | 46.0 °C | 48.7 °C | 47.4 °C | 48.5 °C | 42.7 °C | 47.4 °C | 48.3 °C | – | 47.4 °C | 48.6 °C | 48.2 °C | – |
